The values below come from patent US6682897B1, “Peptides derived from human heat protein 60 for treatment of diabetes, compositions, methods and kits” (Yeda Research and Development Co. Ltd., priority 1995, dated 2004).

Marks after values point to notes of the source that are not given here.

In assay [1] the test system is NOD/Lt female mice. Description: Treatment of NOD mice with peptides in IFA: diabetes and mortality (Example 2). The class given is in vivo. The note with it: 100 μg peptide in IFA s.c., nine-week old NOD/Lt females; for Diabetes (%): persistent blood glucose over 11.1 mmol/l at 25 weeks of age. The protocol:
(iv) Treatment and follow-up. Peptides, […], in PBS, were emulsified with an equal volume of IFA and injected subcutaneously into 10-week-old NOD females as described (Elias and Cohen, 1995). Control mice received an equal volume of PBS emulsified in IFA. The mice were monitored monthly for non-fasting blood glucose at 10am using the Blood Glucose Sensor (MediSense. Inc., Waltham, Mass.). […] Histological examination of the islets of the pancreas was done on sections stained with hematoxylin and eosin. The sections were scored independently by two observers who both were unaware of the identity of the groups. The chi square test was used to ascertain the statistical differences between the various treatments.
To test whether the p12 and p32 peptides can block the progression of diabetes as p277(Val^6-Val^11), the p277(Val6-Val^11), p12 or p32 peptides (100 μg in a 0.1 cc emulsion of IFA) were administered subcutaneously to groups of 10-12 nine-week old NOD/Lt female mice of the Jackson Laboratory, Bar-Harbor, Me. Diabetes, determined as persistent blood glucose levels over 11.1 mmol/l, was tested at 25 weeks of age. Control mice were untreated or were treated with p278.

The conditions of assay [2]: compared with p277; cited from earlier work.
In assay [3] the test system is Peripheral mononuclear cells (PBMC) of IDDM patients. Description: T-cell proliferative response of PBMC from newly diagnosed IDDM patients (Example 3). The class given is cell-based, human. The note with it: antigen 10 μg/ml, 6 days, SI more than 2.0 positive. Here is the method:
To determine the T-cell responses to the various hsp60 peptides, lymphocytes from the peripheral blood of newly diagnosed (2 weeks-4 months) IDDM patients were tested in a proliferation assay. 10-20 ml of blood were removed into a sterile tube containing heparin as anti-coagulant and diluted in PBS 1:2. Peripheral mononuclear cells (PBMC) were isolated by centrifuging the blood over a lymphoprep layer. The PBMC were tested for proliferation in triplicates, in the presence of the various antigens (10 μg/ml) for 6 days using the incorporation of [^3H]-thymidine as a measure of proliferation. The antigens tested were human hsp60 or the hsp60 peptides p277(Val^6-Val^11), p12, p32 and control peptide p278. The T cell proliferative response is depicted as stimulation index (SI): The ratio between peptide-stimulated thymidine incorporation and background (no antigen added) thymidine incorporation by the T cells.

A short description of assay [4]: Cross-reactivity with native peptide by T-cell and antibody assays. An excerpt: (ii) Antigens. […] Whenever unspecified, the human sequence is intended.
For assay [5], the system named is draining popliteal lymph node lymphocytes. Kind of assay: T-cell proliferation of draining lymph node cells of NOD mice immunized with hsp60 peptides in CFA (Example 1, FIG. 2). It counts as cell-based. The note with it: NOD mice immunized with peptide emulsified in CFA in hind foot pads, assayed after 10 days. Here is the method: (iii) T-Cell proliferation to peptides. Mice. Nine week old NOD mice or mice of other strains were immunized in the hind foot pads with 0.1 ml of an emulsion containing 25 μg peptide in complete Freund's adjuvant (CFA; Difco, Detroit, Mich.) mixed with an equal volume of phosphate-buffered saline (PBS). The draining popliteal lymph nodes were removed 10 days later and suspensions of lymphocytes in triplicate cultures were tested for proliferation in the presence of the various peptides (5 μg/ml) using the incorporation of [^3H]-thymidine as described (Elias et al., 1991).
The immunogenicity of the hsp60 peptides p12, p32, p277(Val^6-Val^11) and p278 in NOD mice was tested by immunizing the mice with the peptides emulsified in CFA in the hind foot pads, and assaying the proliferative responses of draining lymph node cells after 10 days as described above in section iii(a).

For the sequence “VLGGGVALLRVIPALDSLTPANED [p277(Val^6-Val^11)]”, in assay [1], the “Mortality (%)” value is listed as 5* %. Besides, in assay [1], the “therapeutic effect in treatment of diabetes” value is given as “effective in treatment of diabetes”. In addition, the “Diabetes (%)” value is 10% in assay [1] and 10* % in assay [1] (listed as p277 (Val^6 - Val^11)). The “activity in the treatment of diabetes” value in assay [2] is recorded as “as active as p277”. Besides, the “T-cell proliferative response (SI)” value in assay [3] (Patient 1) amounted to 4.5; in assay [3] (Patient 2), 5.0; in assay [3] (Patient 3), 5.6; in assay [3] (Patient 4), 1.0; in assay [3] (Patient 5) it was 1.1; in assay [3] (Patient 6), 1.3. Moreover, the “T-cell proliferative response (SI)” value in assay [3] (Patient 7) came out at 3.9; in assay [3] (Patient 8), 1.2. Further, in assay [4], the “cross-reactivity with the native peptide” value was “completely cross-reactive”. The “immunogenicity (proliferative responses of draining lymph node cells)” value in assay [5] is “strongly immunogenic”.
